Experimental data taken from publication PMC11864979, “First-in-class ultralong-target-residence-time p38α inhibitors as a mitosis-targeted therapy for colorectal cancer” (Nature Cancer, 2025).
Read-outs that look alike come from different tables or passages of the source.

What was measured:
Experiment in all cases: selectivity profiling in a panel of 340 wild-type kinases (Reaction Biology Europe)
Type in all cases: binding
340 wild-type kinases [1] = target: T1, 340 wild-type kinases (Homo sapiens, UniProt P04626)
T1 construct: purchased Reaction Biology Europe

340 wild-type kinases [2] = target: T2, 340 wild-type kinases (Homo sapiens, UniProt P49760)
T2 construct: purchased Reaction Biology Europe

340 wild-type kinases [3] = target: T3, 340 wild-type kinases (Homo sapiens, UniProt Q86V86)
T3 construct: purchased Reaction Biology Europe

340 wild-type kinases [4] = target: T4, 340 wild-type kinases (Homo sapiens, UniProt P00533)
T4 construct: purchased Reaction Biology Europe

340 wild-type kinases [5] = target: T5, 340 wild-type kinases (Homo sapiens, UniProt Q09013)
T5 construct: purchased Reaction Biology Europe
T5 sequence (Q09013 1-629): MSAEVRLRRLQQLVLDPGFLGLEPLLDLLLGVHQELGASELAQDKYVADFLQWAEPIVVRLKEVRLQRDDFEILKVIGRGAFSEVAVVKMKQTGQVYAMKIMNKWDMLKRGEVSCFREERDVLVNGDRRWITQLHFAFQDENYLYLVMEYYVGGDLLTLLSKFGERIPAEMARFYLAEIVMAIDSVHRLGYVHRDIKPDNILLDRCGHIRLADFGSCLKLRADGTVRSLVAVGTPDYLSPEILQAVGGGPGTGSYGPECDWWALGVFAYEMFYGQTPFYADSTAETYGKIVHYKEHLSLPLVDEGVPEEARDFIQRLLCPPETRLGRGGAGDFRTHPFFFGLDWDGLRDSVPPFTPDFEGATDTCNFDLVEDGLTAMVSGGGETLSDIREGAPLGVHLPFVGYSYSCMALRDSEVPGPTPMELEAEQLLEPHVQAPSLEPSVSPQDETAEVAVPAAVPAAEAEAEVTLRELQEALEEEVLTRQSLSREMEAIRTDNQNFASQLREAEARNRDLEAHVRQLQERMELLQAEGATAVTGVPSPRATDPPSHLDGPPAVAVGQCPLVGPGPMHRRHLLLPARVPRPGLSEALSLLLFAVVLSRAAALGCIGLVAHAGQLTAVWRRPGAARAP

340 wild-type kinases [6] = target: T6, 340 wild-type kinases (Homo sapiens, UniProt Q9NYV4)
T6 construct: purchased Reaction Biology Europe

340 wild-type kinases [7] = target: T7, 340 wild-type kinases (Homo sapiens, UniProt Q04912)
T7 construct: purchased Reaction Biology Europe

340 wild-type kinases [8] = target: T8, 340 wild-type kinases (Homo sapiens, UniProt P08581)
T8 construct: purchased Reaction Biology Europe

340 wild-type kinases [9] = target: T9, 340 wild-type kinases (Homo sapiens, UniProt Q9UKI8)
T9 construct: purchased Reaction Biology Europe
T9 sequence (Q9UKI8 1-766): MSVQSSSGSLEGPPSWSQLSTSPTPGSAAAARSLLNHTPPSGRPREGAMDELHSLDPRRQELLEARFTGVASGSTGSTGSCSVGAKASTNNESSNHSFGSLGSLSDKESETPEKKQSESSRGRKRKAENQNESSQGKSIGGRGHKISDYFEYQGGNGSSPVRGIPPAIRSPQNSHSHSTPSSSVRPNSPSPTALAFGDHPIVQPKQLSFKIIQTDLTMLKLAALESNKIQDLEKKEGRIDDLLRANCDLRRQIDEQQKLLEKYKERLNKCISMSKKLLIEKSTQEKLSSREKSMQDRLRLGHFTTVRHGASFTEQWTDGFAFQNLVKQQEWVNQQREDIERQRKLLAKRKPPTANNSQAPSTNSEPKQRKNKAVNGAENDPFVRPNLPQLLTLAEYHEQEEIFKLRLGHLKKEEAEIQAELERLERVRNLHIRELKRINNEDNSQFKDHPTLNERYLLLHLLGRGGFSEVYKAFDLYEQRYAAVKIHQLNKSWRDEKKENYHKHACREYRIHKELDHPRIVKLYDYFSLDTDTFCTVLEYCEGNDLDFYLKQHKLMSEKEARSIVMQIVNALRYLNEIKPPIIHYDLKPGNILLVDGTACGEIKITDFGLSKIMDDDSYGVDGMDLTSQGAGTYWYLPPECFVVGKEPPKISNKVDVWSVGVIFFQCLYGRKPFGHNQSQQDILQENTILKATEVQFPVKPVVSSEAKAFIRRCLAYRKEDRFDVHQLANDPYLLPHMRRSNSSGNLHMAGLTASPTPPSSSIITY

340 wild-type kinases [10] = target: T10, 340 wild-type kinases (Homo sapiens, UniProt Q15131)
T10 construct: purchased Reaction Biology Europe

340 wild-type kinases [11] = target: T11, 340 wild-type kinases (Homo sapiens, UniProt Q00536)
T11 construct: purchased Reaction Biology Europe

340 wild-type kinases [12] = target: T12, 340 wild-type kinases (Homo sapiens, UniProt Q99558)
T12 construct: purchased Reaction Biology Europe
T12 sequence (Q99558 whole entry): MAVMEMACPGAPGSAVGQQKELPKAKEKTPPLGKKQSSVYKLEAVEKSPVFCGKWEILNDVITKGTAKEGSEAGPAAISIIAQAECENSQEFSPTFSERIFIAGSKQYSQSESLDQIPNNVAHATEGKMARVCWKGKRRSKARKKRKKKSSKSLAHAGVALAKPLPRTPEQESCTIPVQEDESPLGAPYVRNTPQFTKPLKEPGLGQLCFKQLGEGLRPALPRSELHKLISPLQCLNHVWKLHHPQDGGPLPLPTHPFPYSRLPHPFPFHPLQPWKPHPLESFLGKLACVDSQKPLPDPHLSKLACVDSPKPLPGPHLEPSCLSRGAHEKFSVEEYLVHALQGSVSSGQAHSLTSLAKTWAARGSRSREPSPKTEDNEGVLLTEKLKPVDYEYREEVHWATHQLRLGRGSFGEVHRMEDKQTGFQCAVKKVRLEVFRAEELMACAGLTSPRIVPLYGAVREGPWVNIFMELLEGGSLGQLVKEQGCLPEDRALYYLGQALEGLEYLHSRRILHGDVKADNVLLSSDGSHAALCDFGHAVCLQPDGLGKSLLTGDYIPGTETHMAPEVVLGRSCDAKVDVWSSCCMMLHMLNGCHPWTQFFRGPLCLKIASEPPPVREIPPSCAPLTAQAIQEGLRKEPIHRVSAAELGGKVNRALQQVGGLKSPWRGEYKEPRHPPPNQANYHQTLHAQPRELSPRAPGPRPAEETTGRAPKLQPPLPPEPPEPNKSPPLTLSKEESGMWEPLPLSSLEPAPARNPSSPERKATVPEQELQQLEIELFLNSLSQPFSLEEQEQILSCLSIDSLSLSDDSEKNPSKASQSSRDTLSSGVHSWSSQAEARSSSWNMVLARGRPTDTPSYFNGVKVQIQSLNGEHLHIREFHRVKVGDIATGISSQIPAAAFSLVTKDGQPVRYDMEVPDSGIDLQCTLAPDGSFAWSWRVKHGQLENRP

T6 sequence (Q9NYV4 whole entry): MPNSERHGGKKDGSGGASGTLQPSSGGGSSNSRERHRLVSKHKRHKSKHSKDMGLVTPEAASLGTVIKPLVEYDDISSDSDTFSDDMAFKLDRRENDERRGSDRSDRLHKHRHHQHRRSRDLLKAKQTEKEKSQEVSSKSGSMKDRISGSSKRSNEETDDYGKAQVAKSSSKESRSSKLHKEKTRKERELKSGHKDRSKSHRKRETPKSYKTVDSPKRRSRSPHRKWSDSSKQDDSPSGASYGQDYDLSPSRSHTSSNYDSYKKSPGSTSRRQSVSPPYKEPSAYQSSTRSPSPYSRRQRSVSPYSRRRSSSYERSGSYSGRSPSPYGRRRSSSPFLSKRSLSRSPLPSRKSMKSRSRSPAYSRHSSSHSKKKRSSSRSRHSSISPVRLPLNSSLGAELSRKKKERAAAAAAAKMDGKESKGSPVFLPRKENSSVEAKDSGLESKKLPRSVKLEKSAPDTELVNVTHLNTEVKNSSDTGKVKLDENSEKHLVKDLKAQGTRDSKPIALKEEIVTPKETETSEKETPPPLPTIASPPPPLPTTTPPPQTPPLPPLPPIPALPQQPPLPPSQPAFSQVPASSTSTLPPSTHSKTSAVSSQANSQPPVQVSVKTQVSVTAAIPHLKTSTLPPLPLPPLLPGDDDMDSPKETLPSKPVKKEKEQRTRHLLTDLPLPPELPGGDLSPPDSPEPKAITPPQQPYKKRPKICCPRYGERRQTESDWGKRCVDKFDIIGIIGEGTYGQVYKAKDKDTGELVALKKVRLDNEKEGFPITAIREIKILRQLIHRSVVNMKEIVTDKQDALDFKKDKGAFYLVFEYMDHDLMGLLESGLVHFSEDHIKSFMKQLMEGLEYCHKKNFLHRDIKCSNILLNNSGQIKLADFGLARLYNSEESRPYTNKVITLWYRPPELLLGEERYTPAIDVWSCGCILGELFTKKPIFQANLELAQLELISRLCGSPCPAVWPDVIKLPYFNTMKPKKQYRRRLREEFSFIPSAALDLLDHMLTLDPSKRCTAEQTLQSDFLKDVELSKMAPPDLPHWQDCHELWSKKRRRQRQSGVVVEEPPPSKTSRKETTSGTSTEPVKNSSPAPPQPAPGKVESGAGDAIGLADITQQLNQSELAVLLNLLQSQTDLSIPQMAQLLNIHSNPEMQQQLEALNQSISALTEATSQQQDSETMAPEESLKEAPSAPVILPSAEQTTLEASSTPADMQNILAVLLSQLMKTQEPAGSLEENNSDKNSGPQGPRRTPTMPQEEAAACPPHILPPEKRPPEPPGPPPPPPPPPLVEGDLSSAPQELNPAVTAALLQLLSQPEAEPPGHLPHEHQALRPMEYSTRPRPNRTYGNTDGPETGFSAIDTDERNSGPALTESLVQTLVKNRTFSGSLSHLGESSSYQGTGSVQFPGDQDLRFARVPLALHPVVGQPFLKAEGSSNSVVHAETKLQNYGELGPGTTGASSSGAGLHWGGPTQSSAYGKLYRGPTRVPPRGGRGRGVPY
T2 sequence (P49760 whole entry): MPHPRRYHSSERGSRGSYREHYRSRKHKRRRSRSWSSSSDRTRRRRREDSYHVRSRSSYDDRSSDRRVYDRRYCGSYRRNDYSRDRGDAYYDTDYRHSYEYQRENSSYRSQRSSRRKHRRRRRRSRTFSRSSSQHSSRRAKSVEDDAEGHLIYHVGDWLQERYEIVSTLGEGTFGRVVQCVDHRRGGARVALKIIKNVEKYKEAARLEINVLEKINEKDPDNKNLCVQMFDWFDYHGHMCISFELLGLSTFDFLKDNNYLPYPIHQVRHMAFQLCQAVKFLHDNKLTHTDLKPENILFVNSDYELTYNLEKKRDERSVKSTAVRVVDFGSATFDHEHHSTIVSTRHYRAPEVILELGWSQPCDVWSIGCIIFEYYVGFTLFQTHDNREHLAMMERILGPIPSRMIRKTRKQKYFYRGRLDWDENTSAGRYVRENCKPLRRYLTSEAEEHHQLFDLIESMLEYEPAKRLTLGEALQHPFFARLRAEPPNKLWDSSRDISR
T4 sequence (P00533 25-1210): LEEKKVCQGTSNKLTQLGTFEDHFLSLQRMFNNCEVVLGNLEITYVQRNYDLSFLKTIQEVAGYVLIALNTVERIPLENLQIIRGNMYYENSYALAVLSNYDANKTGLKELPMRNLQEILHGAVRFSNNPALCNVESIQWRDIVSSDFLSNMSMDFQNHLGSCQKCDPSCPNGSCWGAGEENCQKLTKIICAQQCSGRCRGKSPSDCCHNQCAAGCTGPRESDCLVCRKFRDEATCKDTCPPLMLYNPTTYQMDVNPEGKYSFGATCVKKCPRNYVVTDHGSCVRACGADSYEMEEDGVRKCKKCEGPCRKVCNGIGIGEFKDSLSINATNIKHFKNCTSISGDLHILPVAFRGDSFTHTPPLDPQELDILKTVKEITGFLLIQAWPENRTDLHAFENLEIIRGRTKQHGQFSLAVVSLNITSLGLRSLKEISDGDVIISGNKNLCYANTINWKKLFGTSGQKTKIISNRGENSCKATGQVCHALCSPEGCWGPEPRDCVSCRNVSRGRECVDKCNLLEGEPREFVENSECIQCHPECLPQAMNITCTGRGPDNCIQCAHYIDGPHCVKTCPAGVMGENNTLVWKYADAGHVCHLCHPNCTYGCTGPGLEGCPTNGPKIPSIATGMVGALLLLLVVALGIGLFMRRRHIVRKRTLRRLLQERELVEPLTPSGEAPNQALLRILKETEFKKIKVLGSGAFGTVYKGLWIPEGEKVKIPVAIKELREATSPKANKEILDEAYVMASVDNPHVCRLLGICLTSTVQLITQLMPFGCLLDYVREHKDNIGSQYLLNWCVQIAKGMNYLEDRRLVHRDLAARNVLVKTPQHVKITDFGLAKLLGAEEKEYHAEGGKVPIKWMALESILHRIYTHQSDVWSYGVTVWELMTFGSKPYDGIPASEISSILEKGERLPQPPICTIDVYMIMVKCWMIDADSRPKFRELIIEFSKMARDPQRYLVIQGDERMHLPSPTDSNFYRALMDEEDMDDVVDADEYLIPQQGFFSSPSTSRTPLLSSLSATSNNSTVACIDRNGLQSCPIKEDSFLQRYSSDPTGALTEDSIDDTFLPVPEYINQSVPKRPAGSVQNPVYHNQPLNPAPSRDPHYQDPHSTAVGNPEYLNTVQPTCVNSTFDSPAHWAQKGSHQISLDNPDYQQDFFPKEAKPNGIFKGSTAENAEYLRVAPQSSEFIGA
T11 sequence (Q00536 whole entry): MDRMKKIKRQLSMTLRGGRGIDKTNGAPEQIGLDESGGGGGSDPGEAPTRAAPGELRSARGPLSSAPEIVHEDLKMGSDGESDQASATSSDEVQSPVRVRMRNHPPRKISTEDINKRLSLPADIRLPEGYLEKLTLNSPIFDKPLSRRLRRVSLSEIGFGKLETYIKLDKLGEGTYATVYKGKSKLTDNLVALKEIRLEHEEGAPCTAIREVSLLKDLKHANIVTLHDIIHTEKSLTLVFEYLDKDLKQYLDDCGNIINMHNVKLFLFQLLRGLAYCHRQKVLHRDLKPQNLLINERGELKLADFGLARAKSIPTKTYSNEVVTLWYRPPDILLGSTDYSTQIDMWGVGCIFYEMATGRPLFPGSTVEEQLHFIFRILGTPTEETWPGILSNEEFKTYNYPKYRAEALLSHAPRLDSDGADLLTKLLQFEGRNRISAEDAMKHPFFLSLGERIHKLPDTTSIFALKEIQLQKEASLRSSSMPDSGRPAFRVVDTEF
T10 sequence (Q15131 whole entry): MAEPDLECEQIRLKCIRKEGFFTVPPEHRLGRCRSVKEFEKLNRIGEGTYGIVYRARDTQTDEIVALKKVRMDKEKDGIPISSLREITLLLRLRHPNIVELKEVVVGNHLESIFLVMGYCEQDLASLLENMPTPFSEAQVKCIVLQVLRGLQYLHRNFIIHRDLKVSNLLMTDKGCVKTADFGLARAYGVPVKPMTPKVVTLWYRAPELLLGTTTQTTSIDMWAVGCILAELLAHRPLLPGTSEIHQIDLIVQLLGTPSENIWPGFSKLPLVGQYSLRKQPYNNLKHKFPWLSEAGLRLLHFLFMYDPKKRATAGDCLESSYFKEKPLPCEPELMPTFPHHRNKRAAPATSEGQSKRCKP

CNC(=O)c1ccc2c(c1)C(=O)c1ccc(Nc3ccc(F)c(NC(=O)C4CC4)c3)cc1CC2 [Compound 2015] was tested, and the remaining activity at 0.2 µM (340 wild-type kinases [1]; 0.2 µM 2015, read-out: ERBB2 residual activity) was 105%, the remaining activity at 1 µM (340 wild-type kinases [1]; 1 µM 2015, read-out: ERBB2 residual activity) was 102% and the remaining activity at 0.2 µM (340 wild-type kinases [1]; ERBB2, 0.2 µM, read-out: residual activity) was 105%. The remaining activity at 1 µM (340 wild-type kinases [1]; ERBB2, 1 µM, read-out: residual activity) was 102%, the remaining activity at 0.2 µM (340 wild-type kinases [2]; 0.2 µM 2015, read-out: CLK2 residual activity) was 110% and the remaining activity at 1 µM (340 wild-type kinases [2]; 1 µM 2015, read-out: CLK2 residual activity) was 96.8%. For the same molecule, the remaining activity at 0.2 µM (340 wild-type kinases [2]; CLK2, 0.2 µM, read-out: residual activity) was 110%, the remaining activity at 1 µM (340 wild-type kinases [2]; CLK2, 1 µM, read-out: residual activity) was 96.8% and the remaining activity at 0.2 µM (340 wild-type kinases [3]; 0.2 µM 2015, read-out: PIM3 residual activity) was 95.8%. The remaining activity at 1 µM (340 wild-type kinases [3]; 1 µM 2015, read-out: PIM3 residual activity) was 92.3%, the remaining activity at 0.2 µM (340 wild-type kinases [3]; PIM3, 0.2 µM, read-out: residual activity) was 95.8% and the remaining activity at 1 µM (340 wild-type kinases [3]; PIM3, 1 µM, read-out: residual activity) was 92.2%. For the same molecule, the remaining activity at 0.2 µM (340 wild-type kinases [4]; 0.2 µM 2015, read-out: EGFR residual activity) was 108%, the remaining activity at 1 µM (340 wild-type kinases [4]; 1 µM 2015, read-out: EGFR residual activity) was 96.6% and the remaining activity at 0.2 µM (340 wild-type kinases [4]; EGFR, 0.2 µM, read-out: residual activity) was 108%. The remaining activity at 1 µM (340 wild-type kinases [4]; EGFR, 1 µM, read-out: residual activity) was 96.6%, the remaining activity at 0.2 µM (340 wild-type kinases [5]; 0.2 µM 2015, read-out: DMPK residual activity) was 82.9% and the remaining activity at 1 µM (340 wild-type kinases [5]; 1 µM 2015, read-out: DMPK residual activity) was 90.2%. It also gave a remaining activity at 0.2 µM (340 wild-type kinases [5]; DMPK, 0.2 µM, read-out: residual activity) of 82.9%, a remaining activity at 1 µM (340 wild-type kinases [5]; DMPK, 1 µM, read-out: residual activity) of 90.2% and a remaining activity at 0.2 µM (340 wild-type kinases [6]; 0.2 µM 2015, read-out: CDK12/CycK residual activity) of 112%. For the same molecule, the remaining activity at 1 µM (340 wild-type kinases [6]; 1 µM 2015, read-out: CDK12/CycK residual activity) was 103%, the remaining activity at 0.2 µM (340 wild-type kinases [6]; CDK12/CycK, 0.2 µM, read-out: residual activity) was 112% and the remaining activity at 1 µM (340 wild-type kinases [6]; CDK12/CycK, 1 µM, read-out: residual activity) was 103%. The remaining activity at 0.2 µM (340 wild-type kinases [7]; 0.2 µM 2015, read-out: RON residual activity) was 97%, the remaining activity at 1 µM (340 wild-type kinases [7]; 1 µM 2015, read-out: RON residual activity) was 101% and the remaining activity at 0.2 µM (340 wild-type kinases [7]; RON, 0.2 µM, read-out: residual activity) was 97%. For the same molecule, the remaining activity at 1 µM (340 wild-type kinases [7]; RON, 1 µM, read-out: residual activity) was 101%, the remaining activity at 0.2 µM (340 wild-type kinases [8]; 0.2 µM 2015, read-out: MET residual activity) was 96.7% and the remaining activity at 1 µM (340 wild-type kinases [8]; 1 µM 2015, read-out: MET residual activity) was 93.5%. The remaining activity at 0.2 µM (340 wild-type kinases [8]; MET, 0.2 µM, read-out: residual activity) was 96.7%, the remaining activity at 1 µM (340 wild-type kinases [8]; MET, 1 µM, read-out: residual activity) was 93.5% and the remaining activity at 0.2 µM (340 wild-type kinases [9]; 0.2 µM 2015, read-out: TLK1 residual activity) was 122%. For the same molecule, the remaining activity at 1 µM (340 wild-type kinases [9]; 1 µM 2015, read-out: TLK1 residual activity) was 105%, the remaining activity at 0.2 µM (340 wild-type kinases [9]; TLK1, 0.2 µM, read-out: residual activity) was 122% and the remaining activity at 1 µM (340 wild-type kinases [9]; TLK1, 1 µM, read-out: residual activity) was 105%. The remaining activity at 0.2 µM (340 wild-type kinases [10]; 0.2 µM 2015, read-out: CDK10/CycQ residual activity) was 108%, the remaining activity at 1 µM (340 wild-type kinases [10]; 1 µM 2015, read-out: CDK10/CycQ residual activity) was 97.1% and the remaining activity at 0.2 µM (340 wild-type kinases [10]; CDK10/CycQ, 0.2 µM, read-out: residual activity) was 108%. It also gave a remaining activity at 1 µM (340 wild-type kinases [10]; CDK10/CycQ, 1 µM, read-out: residual activity) of 97.1%, a remaining activity at 0.2 µM (340 wild-type kinases [11]; 0.2 µM 2015, read-out: CDK16/CycY residual activity) of 99.3% and a remaining activity at 1 µM (340 wild-type kinases [11]; 1 µM 2015, read-out: CDK16/CycY residual activity) of 96.8%. For the same molecule, the remaining activity at 0.2 µM (340 wild-type kinases [11]; CDK16/CycY, 0.2 µM, read-out: residual activity) was 99.3%, the remaining activity at 1 µM (340 wild-type kinases [11]; CDK16/CycY, 1 µM, read-out: residual activity) was 96.8% and the remaining activity at 0.2 µM (340 wild-type kinases [12]; 0.2 µM 2015, read-out: NIK residual activity) was 113%. For the same molecule, the remaining activity at 1 µM (340 wild-type kinases [12]; 1 µM 2015, read-out: NIK residual activity) was 90.5%, the remaining activity at 0.2 µM (340 wild-type kinases [12]; NIK, 0.2 µM, read-out: residual activity) was 113% and the remaining activity at 1 µM (340 wild-type kinases [12]; NIK, 1 µM, read-out: residual activity) was 90.5%.
